For nine compounds, Critical pressure and Critical temperature results are on record in the NIST ThermoML archive (doi:10.1021/je5002494).

SMILES strings stand for the structures. Numbers after ± are expanded uncertainties.

The conditions of the series: Liquid.

As for `CCOC(=O)CC` [ethyl propanoate], the Critical pressure is listed as 3385.6 ± 300 kPa and the Critical temperature was found to be 546.28 ± 3.7 K.
Taken in the same sequence, the figures for `CCCCCCCC(=O)OCC` [ethyl octanoate] were 2159.2 ± 300 kPa and 655.74 ± 3.7 K.
Taken in the same sequence, the figures for `CCCCC(=O)OCC` [ethyl pentanoate] were 2730.4 ± 300 kPa and 594.02 ± 3.7 K.
Consider `CCOC(C)=O` [ethyl acetate], for which the Critical pressure stood at 3828.9 ± 300 kPa and the Critical temperature is given as 523.29 ± 3.7 K.
`C/C=C/C(=O)OCC` [ethyl trans-2-butenoate]: the Critical pressure came out at 3670.8 ± 300 kPa and the Critical temperature is given as 593.84 ± 3.7 K.
Consider `O=C=O` [carbon dioxide], for which the Critical pressure stood at 7379.8 ± 300 kPa and the Critical temperature turned out to be 304.3 ± 3.7 K.
Taken in the same sequence, the figures for `CCCC(=O)OCC` [ethyl butanoate] were 2891.5 ± 300 kPa and 569.98 ± 3.7 K.
As to `CCCCCC(=O)OCC` [ethyl hexanoate], the Critical pressure was 2531.3 ± 300 kPa and the Critical temperature is reported as 615.22 ± 3.7 K.
Taken in the same sequence, the figures for `CCCCCCC(=O)OCC` [ethyl heptanoate] were 2356.9 ± 300 kPa and 635.12 ± 3.7 K.
